Experimental data: article PMC8379256, “A xanthene derivative, DS20060511, attenuates glucose intolerance by inducing skeletal muscle-specific GLUT4 translocation in mice” (Communications Biology, 2021)
Where “and” joins values, the source holds several entries; their conditions need not be identical. Equal values may be shown once.

Columns and labels:
[1] = system: L6-GLUT4myc myotubes; assay: GLUT4 translocation: cell surface GLUT4myc by anti-Myc antibody assay in L6-GLUT4myc myotubes; format: cell-based, rat; set-up: key to GLUT4 translocation: fold of vehicle-treated group; settings: for Ratio: GLUT4 translocation normalized to vehicle; for A - background / A: Abs. (450 nm): GLUT4 translocation
Method: (§1) The L6-GLUT4myc rat myoblast cell line was obtained from Dr. Amira Klip and Dr. Philip Bilan, through a license granted by The Hospital for Sick Children, 555 University Avenue, Toronto, Ontario, Canada M5G 1 × 8; or purchased from Kerafast, Boston, MA (ESK202)[43]. The 3T3-L1-GLUT4myc fibroblast cell line was provided by Dr. Tomoyuki Yuasa, Tokushima University[44]. L6-GLUT4myc myoblasts were grown in MEMα (32571036, Thermo Fisher Scientific, Waltham, MA) supplemented with 10% FBS and 1% antibiotics, and then induced to differentiate into myotubes in MEMα supplemented with 2% FBS and 1% antibiotics for 5–8 days. 3T3-L1-GLUT4myc fibroblasts were induced to differentiate into adipocytes as described previously,[45] with minor modifications. Briefly, cells were grown to confluence in growth medium: DMEM (10569010, Thermo Fisher Scientific) supplemented with 10% FBS and 1% antibiotics, and then induced to differentiate into adipocytes in growth medium supplemented with 1 μM dexamethasone, 2 μM rosiglitazone, 0.5 mM isobutylmethylxanthine, and 10 μg mL^−1 insulin for 2 days. The adipocytes were then cultured in growth medium supplemented with 10 μg mL^−1 insulin for a few days before being used for the experiments.
(§2) Cell surface GLUT4 levels in the L6-GLUT4myc myoblasts and myotubes were determined by antibody binding assay as described previously[43],[44], with minor modifications. Briefly, cells in a 96- or 24-well plate were starved in serum-free MEMα (0.1% BSA and 1% antibiotics) for 3 h and then treated with the indicated concentrations of DS20060511 and/or insulin for 30 min at 37 °C. After fixation with 4% paraformaldehyde, the cells were incubated with 1% glycine in PBS at 4 °C for 10 min, and blocked with 10% normal goat serum and 3% BSA in PBS at 4 °C for 30 min. The cells were then incubated with anti-c-Myc antibody (sc-40, 1:500) diluted with blocking buffer at 4 °C for 1 h, washed with cold PBS(+), incubated with HRP-conjugated anti-mouse IgG diluted with blocking buffer at 4 °C for 30 min, and then washed again. SuperSignal ELISA Pico Chemiluminescent Substrate (Thermo Fisher Scientific) was added and the luminescent signal was measured. To investigate GLUT4 translocation in the 3T3-L1-GLUT4myc adipocytes, the cells were prepared in a 24-well plate, and anti-c-Myc antibody (sc-789, 1:1000), HRP-conjugated anti-rabbit IgG and SIGMAFAST OPD regent (Sigma–Aldrich) were added for optical detection of the cell surface GLUT4myc levels. The GLUT4 translocation activity was normalized to that in the vehicle-treated group.

[2] = system: 3T3-L1-GLUT4myc adipocytes; assay: GLUT4 translocation: cell surface GLUT4myc by anti-Myc antibody assay in 3T3-L1-GLUT4myc adipocytes; format: cell-based; settings: for Ratio: GLUT4 translocation normalized to vehicle; for A - background / A: Abs. (450 nm): GLUT4 translocation; for GLUT4 translocation (in words): differentiated 3T3-L1-GLUT4myc adipocytes, Fig. 1c
Method: as §1, §2

[3] = system: L6-GLUT4myc myotubes; assay: In vitro cellular 2-DG uptake in L6-GLUT4myc myotubes; format: cell-based, rat; settings: for Ratio: 2-DG uptake normalized to vehicle; for A - background / A: dpm: 2-DG uptake
Method: as §1
(§3) L6-GLUT4myc myotubes and 3T3-L1-GLUT4myc adipocytes were incubated in the wells of a 24-well plate containing serum-free medium for 3 h at 37 °C and then incubated in glucose-free medium for 30 min at 37 °C. The cells were treated with the indicated concentrations of DS20060511 or insulin for 30 min at 37 °C, followed by the addition of 1 mM 2-deoxy-D-glucose (2-DG) and 0.3 μCi mL^−1 [^3H]-2-DG for 10 min. 2-DG uptake was measured with a liquid scintillation counter (Tri-Carb 2810TR, PerkinElmer, Waltham, MA) and normalized to the level in the vehicle-treated group.

[4] = system: 3T3-L1-GLUT4myc adipocytes; assay: In vitro cellular 2-DG uptake in 3T3-L1-GLUT4myc adipocytes; format: cell-based; settings: for Ratio: 2-DG uptake normalized to vehicle; for A - background / A: dpm: 2-DG uptake
Method: as §1, §3

COc1ccc2c(C)c(C(=O)O)ccc2c1C1C2=C(CC(C)(C)CC2=O)OC2=C1C(=O)CC(C)(C)C2 [DS20060511]
GLUT4 translocation on co-treatment with insulin ([1]; 30 μM DS20060511 plus insulin, also at saturating insulin concentration, Fig. 4e): additive increase of GLUT4 translocation
GLUT4 translocation ([1]; DS20060511 30 μM, Latrunculin B 0 nM, normalized to vehicle): 1.94 and 1.98 and 1.81
GLUT4 translocation ([1]; DS20060511 30 μM, Latrunculin B 10 nM): 2.29 and 2.23 and 2.10
GLUT4 translocation ([1]; DS20060511 30 μM, Latrunculin B 30 nM): 1.81 and 2.08 and 1.91
GLUT4 translocation ([1]; DS20060511 30 μM, Latrunculin B 100 nM): 2.37 and 2.30 and 2.39
GLUT4 translocation ([1]; DS20060511 30 μM, Latrunculin B 200 nM): 2.39 and 2.15 and 2.06
Ratio ([1]; DS20060511 0.1 μM): 1.26 and 1.33
Ratio ([1]; DS20060511 1 μM): 1.71 and 1.72 and 1.90
Ratio ([1]; DS20060511 10 μM): 2.15 and 2.14 and 2.27
A - background ([1]; DS20060511 0.1 μM): 0.100 and 0.106
A - background ([1]; DS20060511 1 μM): 0.137 and 0.151 and 0.136
A: Abs. (450 nm) ([1]; DS20060511 1 μM): 0.227 and 0.241 and 0.226
A - background ([1]; DS20060511 10 μM): 0.170 and 0.180 and 0.171
A: Abs. (450 nm) ([1]; DS20060511 10 μM): 0.260 and 0.270 and 0.261
GLUT4 translocation (in words) ([1]; differentiated L6-GLUT4myc myotubes, Fig. 1b): increased GLUT4 translocation in differentiated L6-GLUT4myc myotubes in a concentration-dependent manner
Ratio ([2]; DS20060511 0.1 μM): 0.99 and 1.02 and 1.06
Ratio ([2]; DS20060511 1 μM): 0.93 and 1.02 and 0.98
Ratio ([2]; DS20060511 10 μM): 0.96 and 1.08 and 1.04
A - background ([2]; DS20060511 0.1 μM): 0.1225 and 0.1275 and 0.1195
A: Abs. (450 nm) ([2]; DS20060511 0.1 μM): 0.206 and 0.211 and 0.203
A - background ([2]; DS20060511 1 μM): 0.1225 and 0.1175 and 0.1115
A: Abs. (450 nm) ([2]; DS20060511 1 μM): 0.206 and 0.201 and 0.195
A - background ([2]; DS20060511 10 μM): 0.1305 and 0.1255 and 0.1155
A: Abs. (450 nm) ([2]; DS20060511 10 μM): 0.214 and 0.209 and 0.199
GLUT4 translocation (in words) [2]: almost no effect on GLUT4 translocation
Ratio ([3]; DS20060511 0.1 μM): 1.12 and 1.13 and 1.11
Ratio ([3]; DS20060511 1 μM): 1.53 and 1.44 and 1.45
Ratio ([3]; DS20060511 10 μM): 1.59 and 1.82 and 1.79
A - background ([3]; DS20060511 0.1 μM): 1376 dpm and 1354 dpm and 1361 dpm
A: dpm ([3]; DS20060511 0.1 μM): 1481 dpm and 1459 dpm and 1466 dpm
A - background ([3]; DS20060511 1 μM): 1752 dpm and 1767 dpm and 1863 dpm
A: dpm ([3]; DS20060511 1 μM): 1857 dpm and 1872 dpm and 1968 dpm
A - background ([3]; DS20060511 10 μM): 2208 dpm and 2181 dpm and 1933 dpm
A: dpm ([3]; DS20060511 10 μM): 2313 dpm and 2286 dpm and 2038 dpm
2-DG uptake (in words) ([3]; L6-GLUT4myc myotubes, Fig. 1d): significantly increased 2-DG uptake in a concentration-dependent manner
Ratio ([4]; DS20060511 0.1 μM): 1.50 and 1.09 and 1.18
Ratio ([4]; DS20060511 1 μM): 1.43 and 1.24 and 1.47
Ratio ([4]; DS20060511 10 μM): 1.53 and 1.62 and 1.75
A - background ([4]; DS20060511 0.1 μM): 846 dpm and 912 dpm and 1164 dpm
A: dpm ([4]; DS20060511 0.1 μM): 1342 dpm and 1408 dpm and 1660 dpm
A - background ([4]; DS20060511 1 μM): 957 dpm and 1138 dpm and 1108 dpm
A: dpm ([4]; DS20060511 1 μM): 1453 dpm and 1634 dpm and 1604 dpm
A - background ([4]; DS20060511 10 μM): 1255 dpm and 1357 dpm and 1185 dpm
A: dpm ([4]; DS20060511 10 μM): 1751 dpm and 1853 dpm and 1681 dpm

Insulin: Insulin (Humulin, Eli Lilly) in the in vivo experiments; Insulin solution human (I9278, Sigma–Aldrich) in the in vitro experiments
Ratio ([1]; Insulin 1 nM): 1.41 and 1.40 and 1.33
Ratio ([1]; Insulin 10 nM): 1.91 and 1.96 and 1.84
Ratio ([1]; Insulin 100 nM): 2.47 and 2.48 and 2.46
A - background ([1]; Insulin 1 nM): 0.111 and 0.106 and 0.112
A: Abs. (450 nm) ([1]; Insulin 1 nM): 0.201 and 0.196 and 0.202
A - background ([1]; Insulin 10 nM): 0.156 and 0.146 and 0.152
A: Abs. (450 nm) ([1]; Insulin 10 nM): 0.246 and 0.236 and 0.242
A - background ([1]; Insulin 100 nM): 0.196 and 0.194 and 0.195
GLUT4 translocation ([1]; Insulin 100 nM, Latrunculin B 0 nM, normalized to vehicle): 3.11 and 3.04 and 3.07
GLUT4 translocation ([1]; Insulin 100 nM, Latrunculin B 10 nM): 3.38 and 3.09 and 3.08
GLUT4 translocation ([1]; Insulin 100 nM, Latrunculin B 30 nM): 2.53 and 2.30 and 2.42
GLUT4 translocation ([1]; Insulin 100 nM, Latrunculin B 100 nM): 2.62 and 2.09 and 2.39
GLUT4 translocation ([1]; Insulin 100 nM, Latrunculin B 200 nM): 2.01 and 1.93
Ratio ([2]; Insulin 1 nM): 1.07 and 1.09 and 1.12
Ratio ([2]; Insulin 10 nM): 1.31 and 1.33 and 1.41
Ratio ([2]; Insulin 100 nM): 1.41 and 1.46 and 1.56
A - background ([2]; Insulin 1 nM): 0.1315 and 0.1345 and 0.1295
A: Abs. (450 nm) ([2]; Insulin 1 nM): 0.215 and 0.218 and 0.213
A - background ([2]; Insulin 10 nM): 0.1605 and 0.1705 and 0.1575
A: Abs. (450 nm) ([2]; Insulin 10 nM): 0.244 and 0.254 and 0.241
A - background ([2]; Insulin 100 nM): 0.1755 and 0.1885 and 0.1705
A: Abs. (450 nm) ([2]; Insulin 100 nM): 0.259 and 0.272 and 0.254
GLUT4 translocation (in words) [2]: increased GLUT4 translocation
Ratio ([3]; Insulin 1 nM): 1.26 and 1.31 and 1.36
Ratio ([3]; Insulin 10 nM): 1.62 and 1.58 and 1.67
Ratio ([3]; Insulin 100 nM): 1.81 and 1.94 and 2.02
A - background ([3]; Insulin 1 nM): 1594 dpm and 1651 dpm and 1530 dpm
A: dpm ([3]; Insulin 1 nM): 1699 dpm and 1756 dpm and 1635 dpm
A - background ([3]; Insulin 10 nM): 1918 dpm and 2031 dpm and 1966 dpm
A: dpm ([3]; Insulin 10 nM): 2023 dpm and 2136 dpm and 2071 dpm
A - background ([3]; Insulin 100 nM): 2363 dpm and 2459 dpm and 2203 dpm
A: dpm ([3]; Insulin 100 nM): 2468 dpm and 2564 dpm and 2308 dpm
Ratio ([4]; Insulin 1 nM): 12.31 and 11.72 and 12.41
Ratio ([4]; Insulin 10 nM): 13.43 and 13.26 and 13.52
Ratio ([4]; Insulin 100 nM): 12.21 and 13.79 and 13.94
A - background ([4]; Insulin 1 nM): 9081 dpm and 9610 dpm and 9537 dpm
A: dpm ([4]; Insulin 1 nM): 9577 dpm and 10106 dpm and 10033 dpm
A - background ([4]; Insulin 10 nM): 10270 dpm and 10470 dpm and 10402 dpm
A: dpm ([4]; Insulin 10 nM): 10766 dpm and 10966 dpm and 10898 dpm
A - background ([4]; Insulin 100 nM): 10682 dpm and 10795 dpm and 9457 dpm
A: dpm ([4]; Insulin 100 nM): 11178 dpm and 11291 dpm and 9953 dpm
2-DG uptake (in words) ([4]; differentiated 3T3-L1-GLUT4myc adipocytes, Fig. 1e): increase 2-DG uptake
